# Test results as given in patent publication US8269000B2, “Substituted pyrimidine and triazine compounds” (Gruenenthal GmbH, priority 2008, dated 2012).
# Columns and labels:
# human B1R = target: T1, human B1R (Homo sapiens, UniProt P46663); test: FLIPR Ca2+ functional study on bradykinin receptor 1 (hB1R CHO K1 cells); assay type: cell-based; details: % inhibition human B1R at 10 μM; for inhibition at 10 µM: read-out: % inh. (hum. B1R) 10 μM
# T1 construct: expressed in transfected cells; host or cells: CHO K1 cells
# T1 sequence (P46663 1-353): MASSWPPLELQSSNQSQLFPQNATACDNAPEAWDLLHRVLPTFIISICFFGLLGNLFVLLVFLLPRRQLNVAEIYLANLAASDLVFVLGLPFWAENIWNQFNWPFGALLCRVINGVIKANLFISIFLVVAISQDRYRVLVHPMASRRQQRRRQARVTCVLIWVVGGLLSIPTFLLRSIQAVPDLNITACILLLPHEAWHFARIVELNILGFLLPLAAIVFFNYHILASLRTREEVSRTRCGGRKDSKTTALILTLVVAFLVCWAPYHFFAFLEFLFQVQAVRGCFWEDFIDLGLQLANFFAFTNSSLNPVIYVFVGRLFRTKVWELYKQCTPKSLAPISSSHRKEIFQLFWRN
# Description: The agonistic or antagonistic activity of substances can be quantified on the bradykinin receptor 1 (B1R) of the species human and rat using ectopically expressing cell lines (CHO K1 cells) and with the aid of a Ca^2+-sensitive dye (Fluo-4) using a fluorescent imaging plate reader (FLIPR). The indication in % activation is based on the Ca^2+ signal after addition of Lys-Des-Arg^9-bradykinin (0.5 nM) or Des-Arg^9-bradykinin (100 nM). Antagonists lead to suppression of the Ca^2+ influx after the addition of the agonist. % Inhibition compared with the maximum achievable inhibition is indicated.
# The agonistic or antagonistic activity of substances can be determined on the bradykinin receptor 1 (B1R) of the species human and rat using the following assay. According to this assay, the Ca^2+ influx through the channel is quantified with the aid of a Ca^2+-sensitive dye (Fluo-4 type, Molecular Probes Europe BV, Leiden, Netherlands) using a Fluorescent Imaging Plate Reader (FLIPR, Molecular Devices, Sunnyvale, USA).
# Chinese hamster ovary cells (CHO K1 cells) which have been stably transfected with the human B1R gene (hB1R cells) or with the B1R gene of the rat (rB1R cells) are used. For functional studies, the cells are plated out on black 96-well plates having a clear base (BD Biosciences, Heidelberg, Germany or Greiner, Frickenhausen, Germany) in a density of 20,000-35,000 cells/well. The cells are left overnight at 37° C. and with 5% CO2 in culture medium (hB1R cells: Nutrient Mixture Ham's F12, Gibco Invitrogen GmbH, Karlsruhe, Germany or DMEM, Sigma-Aldrich, Taufkirchen, Germany; rB1R cells: D-MEM/F12, Gibco Invitrogen GmbH, Karlsruhe, Germany), with 10 vol.% FBS (fetal bovine serum, Gibco Invitrogen GmbH, Karlsruhe, Germany or PAN Biotech GmbH, Aidenbach, Germany). On the following day, the cells are loaded for 60 minutes at 37° C. with 2.13 μM Fluo-4 (Molecular Probes Europe BV, Leiden, Netherlands) in HBSS buffer (Hank's buffered saline solution, Gibco Invitrogen GmbH, Karlsruhe, Germany) […] (Sigma-Aldrich, Taufkirchen, Germany) and 10 mM HEPES (Sigma-Aldrich, Taufkirchen, Germany). The plates are then washed twice with HBSS buffer, and HBSS buffer additionally containing 0.1% BSA (bovine serum albumin; Sigma-Aldrich, Taufkirchen, Germany), 5.6 mM glucose and 0.05% gelatin (Merck KGaA, Darmstadt, Germany) is added to the plates. After incubation for a further 20 minutes at room temperature, the plates are inserted into the FLIPR for Ca^2+ measurement. Alternatively, washing is carried out with buffer A (15 mM HEPES, 80 mM NaCl, 5 mM KCl, 1.2 mM CaCl2, 0.7 mM MgSO4, 2 g/l glucose, 2.5 mM probenecid) followed by loading with buffer A with added 2.5 μM Fluo-4 and 0.025% Pluronic F127 (Sigma-Aldrich, Taufkirchen, Germany). The cells are then washed twice with buffer A and incubated for 30 minutes at room temperature with buffer A additionally containing 0.05% BSA and 0.05% gelatin and are then inserted into the FLIPR for Ca^2+ measurement. The Ca^2+-dependent fluorescence is measured before and after the addition of substances (λex=488 nm, λem=540 nm). Quantification is carried out by measuring the highest fluorescence intensity (FC, fluorescence counts) over time.
# The FLIPR protocol consists of two substance additions. Test substances (10 μM) are first pipetted onto the cells and the Ca^2+ influx is compared with the control (hB1R: Lys-Des-Arg^9-bradykinin>=50 nM; rB1R: Des-Arg^9-bradykinin 10 μM). This gives the activation in %, based on the Ca^2+ signal after addition of Lys-Des-Arg^9-bradykinin (>=50 nM) or Des-Arg^9-bradykinin (10 μM). After 10-20 minutes' incubation, Lys-Des-Arg^9-bradykinin (hB1R) or Des-Arg^9-bradykinin (rB1R) is applied in the concentration of the EC80, and the influx of Ca^2+ is likewise determined. Antagonists lead to suppression of the Ca^2+ influx. The % inhibition compared with the maximum achievable inhibition is calculated. […]
# rat B1R = target: T2, rat B1R (Rattus norvegicus, UniProt P97583); test: FLIPR Ca2+ functional study on bradykinin receptor 1 (rB1R CHO K1 cells); assay type: cell-based; details: for % inh. (rat B1R) 10 μM: % inhibition rat B1R at 10 μM; for inhibition at 10 µM: CHO-K1, % inhibition rat B1R at 10 μM, read-out: % inh. (rat B1R) 10 μM
# T2 construct: expressed in transfected cells; host or cells: CHO K1 cells
# T2 sequence (P97583 1-337): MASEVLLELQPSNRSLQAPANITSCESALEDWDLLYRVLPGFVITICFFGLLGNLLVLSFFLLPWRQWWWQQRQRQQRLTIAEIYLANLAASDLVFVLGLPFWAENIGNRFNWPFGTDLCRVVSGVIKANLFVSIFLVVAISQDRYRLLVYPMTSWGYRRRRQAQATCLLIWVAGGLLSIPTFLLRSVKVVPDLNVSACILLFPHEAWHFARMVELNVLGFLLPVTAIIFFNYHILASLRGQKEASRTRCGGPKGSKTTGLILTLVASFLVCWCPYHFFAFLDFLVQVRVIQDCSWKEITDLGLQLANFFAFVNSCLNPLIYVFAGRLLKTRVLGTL
# Procedure, shortened: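 Antagonism was calculated as % of maximal inhibition of the Ca2+ rise triggered by agonist at EC80 (Lys-Des-Arg9-bradykinin for hB1R, Des-Arg9-bradykinin for rB1R), added 10-20 min after test compound (10 μM or serial dilutions for IC50) to Fluo-4-loaded transfected CHO K1 cells on FLIPR. Duplicates or triplicates, ≥2 independent runs.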
Structure (SMILES),% inh. (hum. B1R) 10 μM (human B1R) [%],% inh. (rat B1R) 10 μM (rat B1R) [%],inhibition at 10 µM (human B1R) [%],inhibition at 10 µM (rat B1R) [%],% inh. (rat B1R) 10 μM (rat B1R; 10 µM) [%]
COc1cc(C)c(S(=O)(=O)N2CCCCC2COc2nccc(N3CCC(CCN4CCCCC4)CC3)n2)c(C)c1 (centres unmarked) [G_CC-026],97,100,–,–,–
"COc1cc(C)c(S(=O)(=O)NC(C)(C)COc2nccc(N3CCC4(CCN(c5ccncc5)CC4)CC3)n2)c(C)c1 [Example G-024, N-[1,1-dimethyl-2-[4-(9-pyridin-4-yl-3,9-diazaspiro[5.5]undecan-3-yl)-pyrimidin-2-yl]oxy-ethyl]-4-methoxy-2,6-dimethyl-benzenesulfonic acid amide]",–,–,99,113,–
"COc1cc(C)c(S(=O)(=O)N(C)CCOc2nccc(N3CCN(c4ccncc4)CC3)n2)c(C)c1 [Example G-002, 4-methoxy-N,2,6-trimethyl-N-[2-[[4-[4-(4-pyridyl)-1-piperazinyl]-2-pyrimidinyl]oxy]ethyl]benzenesulfonamide]",–,–,97,109,–
COc1cc(C)c(S(=O)(=O)N2CCCCC2COc2ccnc(N3CCC4(CCN(c5ccncc5)CC4)CC3)n2)c(C)c1 (centres unmarked) [H_CC-032],77,101,–,–,–
"COc1cc(C)c(S(=O)(=O)N2CCCCC2COc2nccc(N3CCC(OCCN4CCCC4)(c4cccnc4)CC3)n2)c(C)c1 (centres unmarked) [Example G-004, 2-[[1-(4-methoxy-2,6-dimethylphenyl)sulfonyl-2-piperidinyl]methoxy]-4-[4-(3-pyridyl)-4-(2-1-pyrrolidinylethoxy)-1-piperidinyl]pyrimidine]",–,–,99,73,–
COc1cc(C)c(S(=O)(=O)N2CCCCC2COc2ccnc(N(C)CCN3CCC(c4ccccc4)(N(C)C)CC3)n2)c(C)c1 (centres unmarked) [Example H-004],–,–,99,–,93
"COc1cc(C)c(S(=O)(=O)N(CCOc2nccc(N3CCC(Oc4ccncc4)CC3)n2)C2CC2)c(C)c1 [Example G-012, N-cyclopropyl-4-methoxy-2,6-dimethyl-N-[2-[[4-[4-(4-pyridyloxy)-1-piperidinyl]-2-pyrimidinyl]oxy]ethyl]benzenesulfonamide]",–,–,99,97,–
"COc1cc(C)c(S(=O)(=O)N(CCN(C)c2cc(N3CCC4(CCN(c5ccncc5)CC4)CC3)ncn2)C2CC2)c(C)c1 [Example I-003, N-cyclopropyl-4-methoxy-2,6-dimethyl-N-[2-[methyl-[6-(9-pyridin-4-yl-3,9-diazaspiro[5.5]undecan-3-yl)-pyrimidin-4-yl]-amino]-ethyl]-benzenesulfonic acid amide]",–,–,96,108,–
"COc1cc(C)c(S(=O)(=O)N2CCC[C@H]2COc2nccc(N3CCN(C4CCN(C)CC4)CC3)n2)c(C)c1 [G_CC-036, 2-[[(2S)-1-(4-methoxy-2,6-dimethylphenyl)sulfonyl-2-pyrrolidinyl]methoxy]-4-[4-(1-methyl-4-piperidinyl)-1-piperazinyl]pyrimidine]",–,–,75,102,–
"COc1cc(C)c(S(=O)(=O)N(C)CCOc2nccc(N(C)CCN3CCC(c4ccccc4)(N(C)C)CC3)n2)c(C)c1 [Example G-003, N-[2-[[4-[2-(4-dimethylamino-4-phenyl-1-piperidinyl)ethyl-methylamino]-2-pyrimidinyl]oxy]ethyl]-4-methoxy-N,2,6-trimethylbenzenesulfonamide]",–,–,101,–,112
"COc1cc(C)c(S(=O)(=O)N2CCCCC2COc2nccc(N3CCN(CC4CCN(C)CC4)CC3)n2)c(C)c1 (centres unmarked) [G_CC-014, 2-[[1-(4-methoxy-2,6-dimethylphenyl)sulfonyl-2-piperidinyl]methoxy]-4-[4-[(1-methyl-4-piperidinyl)methyl]-1-piperazinyl]pyrimidine]",–,–,94,105,–
"COc1cc(C)c(S(=O)(=O)N(CCOc2nccc(N3CCC4(CCC(N5CC(F)(F)C5)CC4)CC3)n2)C2CC2)c(C)c1 [Example G-017, N-cyclopropyl-N-[2-[[4-[9-(3,3-difluoro-1-azetidinyl)-3-azaspiro[5.5]undecan-3-yl]-2-pyrimidinyl]oxy]ethyl]-4-methoxy-2,6-dimethylbenzenesulfonamide]",–,–,22,103,–
"COc1cc(C)c(S(=O)(=O)N(CCN(C)c2cncc(N3CCC4(CCN(c5ccncc5)CC4)CC3)n2)C2CC2)c(C)c1 [Example I-002, N-cyclopropyl-4-methoxy-2,6-dimethyl-N-[2-[methyl-[6-(9-pyridin-4-yl-3,9-diazaspiro[5.5]undecan-3-yl)-pyrazin-2-yl]-amino]-ethyl]-benzenesulfonic acid amide]",–,–,94,109,–
"COc1cc(C)c(S(=O)(=O)N(CCOc2nccc(NCCC3CCN(c4ccncc4)CC3)n2)C2CC2)c(C)c1 [Example G-006, N-cyclopropyl-4-methoxy-2,6-dimethyl-N-[2-[[4-[2-[1-(4-pyridyl)-4-piperidinyl]ethylamino]-2-pyrimidinyl]oxy]ethyl]benzenesulfonamide]",–,–,99,94,–
"COc1cc(C)c(S(=O)(=O)N2CCCCC2COc2nccc(N3CCN(c4ccncc4)CC3)n2)c(C)c1 (centres unmarked) [G_CC-013, 2-[[1-(4-methoxy-2,6-dimethylphenyl)sulfonyl-2-piperidinyl]methoxy]-4-[4-(4-pyridyl)-1-piperazinyl]pyrimidine]",–,–,100,102,–
"COc1cc(C)c(S(=O)(=O)N2CCC[C@H]2COc2nccc(N3CCC(O)(c4cccs4)CC3)n2)c(C)c1 [G_CC-021, 1-[2-[[(2S)-1-(4-methoxy-2,6-dimethylphenyl)sulfonyl-2-pyrrolidinyl]methoxy]-4-pyrimidinyl]-4-(2-thienyl)-4-piperidinol]",–,–,36,105,–
